Experimental data reported in patent publication US5416118A, “Bicyclic amides as inhibitors of acyl-coenzyme A: cholesterol acyl transferase” (Schering Corporation, priority 1993, dated 1995).

What was measured:
cholesteryl esters = assay: In Vivo Assay of Hypolipidemic Agents Using the Hyperlipidemic Hamster; conditions: Mesocricetus auratus, po, 168 h, oral gavage once daily, 7 days, versus control, read-out: % Reduction in cholesteryl esters; for change in vivo at 50 mg/kg: 50 mpk; for change in vivo at 25 mg/kg: 25 mpk; for change in vivo at 10 mg/kg: 10 mpk; for change in vivo at 100 mg/kg: 100 mpk
Procedure: In Vivo Assay of Hypolipidemic Agents Using the Hyperlipidemic Hamster
Hamsters are separated into groups of six and given a control cholesterol diet (Pudna Chow #5001 containing 0.5% cholesterol) for seven days. Diet consumption is monitored to determine dietary cholesterol exposure in the face of test compounds. The animals are dosed with the test compound once daily beginning with the initiation of diet. Dosing is by oral gavage of 0.2 mL of corn oil alone (control group) or solution (or suspension) of test compound in corn oil. All animals moribund or in poor physical condition are euthanized. After seven days, the animals are anesthetized by […] of ketamine and sacrificed by decapitation. Blood is collected into vacutainer tubes containing EDTA for plasma lipid analysis and the liver excised for tissue lipid analysis. Data is reported as percent reduction of lipid versus control.
(§1) Using the assay methods described above, the compounds of Examples 1-9 were tested for in vitro ACAT inhibitory activity and for the ability to lower the level of cholesteryl esters in vivo.

ACAT = ACAT Assay (in vitro); type: biochemical; conditions: dose = 10 μM; rat liver microsomes
Procedure: This assay measures the activity of ACAT by measuring the ACAT-mediated transfer of tritiated oleic acid from acyl-CoA to cholesterol to give labelled cholesterol oleate. Rat liver microsomes are used as the source of ACAT. Assays are performed in round bottom microtiterplates using a total incubation volume of 50 μL. Each incubation well receives 10 μL assay buffer (0.5M KHPO4, 10 μM dithiothreitol, pH 7.4), 7.5 μL of 40 mg/mL BSA (Bovine Serum Albumin) and 12.5 μg of microsomal protein. The test compound (in sufficient amount to bring the final concentration to from 0.1 to 25 μM), reference compound, or vehicle control is added and the final volume brought to 47 μL. The microtiterplate is then floated on the surface of a 37° C. water bath for fifteen minutes. Incubations are started by the addition of 3 μL ^3 H-acyl CoA (1 μCi/well, final concentration of 10 μM acyl CoA). The plate is then returned to the water bath for 15 minutes. The incubations are then terminated by application of 15 μL from each incubation to individual lanes on a thin layer plate (Silica Gel GF 20×20 cm). Standards are applied to several lanes so that the cholesterol ester band can be identified. After drying, the plates are eluted with 90:10:1 petroleum ether:ether:HOAc. The standards are visualized via iodine vapor, and the regions corresponding to cholesterol ester are scraped into 7 mL scintillation vials. 4 mL of scintillant are added to each vial, and the radioactivity quantified. Background count is determined by the boiled controls. Full activity is determined by activity in the presence of vehicle. The percent inhibition is calculated by subtracting the background from both control and test samples, and the test value is calculated as a percentage of the control. For IC50 determinations, the inhibition is plotted against drug doses on a log scale and the concentration at which 50% inhibition is obtained is determined.
as §1

SMILES | change in vivo at 50 mg/kg (cholesteryl esters) [%] | ACAT % Inhibition (ACAT) [%] | change in vivo at 25 mg/kg (cholesteryl esters) [%] | change in vivo at 10 mg/kg (cholesteryl esters) [%] | change in vivo at 100 mg/kg (cholesteryl esters) [%]
O=C(N[C@@H]1c2ccccc2CC[C@@H]1c1cccc(O)c1)C(c1ccccc1)c1ccccc1 (relative stereo) [Example 3C] | 0 | 77 | – | – | –
O=C(N[C@H]1c2ccccc2OC[C@@H]1c1ccccc1)C(c1ccccc1)c1ccccc1 (relative stereo) [Example 1M] | 0 | 85 | – | – | –
COc1ccc2c(c1)C[C@H](c1ccccc1)[C@H]2NC(=O)C(c1ccccc1)c1ccccc1 (relative stereo) [Example 2K] | – | 90 | 17 | – | –
O=C(N[C@H]1c2ccccc2C[C@H]1c1ccc(O)cc1)C(c1ccccc1)c1ccccc1 (relative stereo) [Example 3, cis-N-[2-(4'-hydroxyphenyl)indanyl]-αphenylbenzeneacetamide] | -89 | 99 | -87.5 | -71 | –
O=C(N[C@@H]1c2ccccc2CC[C@@H]1c1ccc(O)cc1)C(c1ccccc1)c1ccccc1 (relative stereo) [Example 3F] | -16 | 91 | – | – | –
O=C(N[C@@H]1c2ccccc2C[C@@H]1c1ccc(O)c(Cl)c1)C(c1ccccc1)c1ccccc1 (relative stereo) [Example 8, cis-N-[2-(3'-chloro-4'-hydroxyphenyl)indanyl]-α-phenylbenzeneacetamid] | -40 | 99 | – | – | –
O=C(N[C@@H]1c2ccc(O)cc2CC[C@@H]1c1ccccc1)C(c1ccccc1)c1ccccc1 (relative stereo) [Example 3M] | -45 | 87 | – | – | –
O=C(N[C@H]1c2ccccc2OC[C@H]1c1ccccc1)C(c1ccccc1)c1ccccc1 (relative stereo) [Example 1E] | 0 | 40 | – | – | –
Cc1cc([C@H]2Cc3ccccc3[C@H]2NC(=O)C(c2ccccc2)c2ccccc2)cc(C)c1O (single isomer, unassigned) [Example 9A, (+)-cis-N-[2-(3',5'-dimethyl-4'-hydroxyphenyl)indanyl]-α-phenylbenzeneacetamide] | -60 | 97 | – | – | –
O=C(N[C@@H]1c2ccc(O)cc2C[C@@H]1c1ccccc1)C(c1ccccc1)c1ccccc1 (relative stereo) [Example 3K] | 0 | 54 | – | – | –
O=C(N[C@@H]1c2ccccc2CC[C@H]1c1ccc(O)cc1)C(c1ccccc1)c1ccccc1 (relative stereo) [Example 3G] | -57 | 93 | -43 | – | –
O=C(N[C@H]1c2ccccc2C[C@H]1c1cccc([N+](=O)[O-])c1)C(c1ccccc1)c1ccccc1 (relative stereo) [Example 2C] | 0 | 99 | – | – | –
Nc1cccc([C@H]2Cc3ccccc3[C@H]2NC(=O)C(c2ccccc2)c2ccccc2)c1 (relative stereo) [Example 5A, cis-N-[2-(3'-aminophenyl)indanyl]-α-phenylbenzeneacetamide] | – | 95 | – | 0 | –
COc1ccc([C@H]2CCc3ccccc3[C@@H]2NC(=O)N(c2ccccc2)c2ccccc2)cc1 (relative stereo) [Example 6, trans-N'-[2-(4'-methoxyphenyl)-1,2,3,4-tetrahydronaphthalen-1-yl]-N,N-diphenylurea] | -16 | 97 | – | – | –
CCCCCCCC/C=C\CCCCCCCC(=O)N[C@H]1c2ccccc2CC[C@@H]1c1ccc(OC)cc1 (relative stereo) [Example 2H] | – | 81 | – | – | 0
O=C(N[C@@H]1c2cc(O)ccc2C[C@@H]1c1ccccc1)C(c1ccccc1)c1ccccc1 (relative stereo) [Example 3W] | 14 | 84 | – | – | –
CCCCCCCCCC(C)(C)C(=O)N[C@@H]1c2ccccc2CC[C@H]1c1ccc(O)cc1 (relative stereo) [Example 3H] | 0 | 86 | – | – | –
COc1ccc([C@@H]2CCCc3ccccc3[C@@H]2NC(=O)C(c2ccccc2)c2ccccc2)cc1 (relative stereo) [Example 1H] | 0 | 84 | – | – | –
O=C(N[C@H]1c2ccccc2C[C@H]1c1ccccc1)C(c1ccccc1)c1ccccc1 (relative stereo) [Example 2S] | 16 | 83 | – | – | –
CCCCCCCC/C=C\CCCCCCCC(=O)N[C@@H]1c2ccccc2CC[C@H]1c1ccc(O)cc1 (relative stereo) [Example 4, trans-N-[2-(4'-hydroxyphenyl)-1,2,3,4-tetrahydronaphth-1-yl]oleamide] | 0 | 94 | – | – | –
CCCCCCCC/C=C\CCCCCCCC(=O)N[C@H]1c2ccccc2CC[C@H]1c1ccc(OC)cc1 (relative stereo) [Example 2G] | – | 73 | – | – | 0
CCCCCCCCCC(C)(C)C(=O)N[C@H]1c2ccccc2CC[C@@H]1c1ccc(OC)cc1 (relative stereo) [Example 1F] | 0 | 36 | – | – | –
O=C(N[C@@H]1c2ccccc2C[C@@H]1c1cccc(O)c1)C(c1ccccc1)c1ccccc1 (relative stereo) [Example 3B] | 0 | 97 | – | – | –
COc1ccc([C@@H]2Cc3ccccc3[C@@H]2NC(=O)C(c2ccccc2)c2ccccc2)cc1 (relative stereo) [Example 2, cis-N-[2-(4'-methoxyphenyl)indanyl]-α-phenylbenzeneacetamide] | -17 | 96 | – | – | –
O=C(N[C@@H]1c2cc(O)ccc2CC[C@@H]1c1ccccc1)C(c1ccccc1)c1ccccc1 (relative stereo) [Example 3P] | 0 | 75 | – | – | –
O=C(N[C@@H]1c2ccccc2C[C@@H]1c1cc(Cl)c(O)c(Cl)c1)C(c1ccccc1)c1ccccc1 (relative stereo) [Example 8A, cis-N-[2-(3',5'-dichloro-4'-hydroxyphenyl)indanyl]-α-phenylbenzeneacetamide] | -14 | 99 | – | – | –
COc1ccc([C@H]2Cc3ccccc3[C@@H]2NC(=O)C(c2ccccc2)c2ccccc2)cc1 (relative stereo) [Example 2F] | 0 | 19 | – | – | –
CCCCCCCC/C=C\CCCCCCCC(=O)N[C@@H]1c2ccccc2CC[C@@H]1c1ccc(O)cc1 (relative stereo) [Example 4A] | 0 | 81 | – | – | –
